Laboratory results: article PMC3191909 (Journal of biomolecular screening, 2009)
pKd: −log10 of the molar value. Read-outs that look alike come from different tables or passages of the source.

Assays:
(UniProt Z9ZW91H0F0) = assay: [3H]epibatidine radioligand competition SPA, Bt AChBP; assay type: binding, Bolinus truncates
AChBP (Ac) [1] = target: T1, AChBP (Ac) (Aplysia californica, UniProt Q8WSF8); assay: [3H]epibatidine radioligand competition SPA, Ac AChBP; assay type: binding
α-cobratoxin = α-cobratoxin (Naja kaouthia, UniProt P01391); design: species or system mice; details: mouse, in vivo, iv
AChBP (Ac) [2] = target: T1, AChBP (Ac); assay: biochemical; assay type: binding
AChBP (Ls) [3] = target: T2, AChBP (Ls) (Lymnaea stagnalis, UniProt P58154); assay type: binding; details: read-out: Kd, [3H]Epibatidine
AChBP (Ls) [4] = target: T2, AChBP (Ls); assay type: binding; details: read-out: Kd, [125I]α-Bungarotoxin

T2 sequence (P58154 20-229): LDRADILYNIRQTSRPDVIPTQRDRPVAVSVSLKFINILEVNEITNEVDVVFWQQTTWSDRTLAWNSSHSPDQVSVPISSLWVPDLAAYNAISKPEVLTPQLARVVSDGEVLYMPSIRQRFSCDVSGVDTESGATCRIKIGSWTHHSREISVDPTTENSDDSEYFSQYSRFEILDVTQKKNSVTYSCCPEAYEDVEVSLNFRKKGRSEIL
Sequence of α-cobratoxin (P01391 whole entry, looked up): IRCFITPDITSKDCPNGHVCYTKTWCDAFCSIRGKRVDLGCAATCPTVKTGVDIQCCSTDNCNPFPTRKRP
Sequence of (UniProt Z9ZW91H0F0) (Z9ZW91H0F0 1-203): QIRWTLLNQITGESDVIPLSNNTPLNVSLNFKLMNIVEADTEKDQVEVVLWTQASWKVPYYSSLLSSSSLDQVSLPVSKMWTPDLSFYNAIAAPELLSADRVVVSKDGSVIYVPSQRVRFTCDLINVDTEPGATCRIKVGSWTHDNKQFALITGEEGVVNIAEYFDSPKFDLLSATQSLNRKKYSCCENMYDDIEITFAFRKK

Compound	pKd (AChBP (Ls) [3])	pKd (AChBP (Ls) [4])	other results
COc1cc2c3cc1Oc1cc(ccc1O)C[C@@H]1c4c(cc(OC)c(O)c4Oc4ccc(cc4)C[C@@H]3N(C)CC2)CC[N+]1(C)C [NSC36387, d-tubocurarine, reference compound]			pKd ((UniProt Z9ZW91H0F0)): 7.43
c1ccc2c(CN3CCN(Cc4c[nH]c5ccccc45)CC3)c[nH]c2c1 [NSC42258]			pKd (AChBP (Ac) [1]): 5.94; effect on survival time of mice (in words) (α-cobratoxin): can prolong the survival time; pKd (AChBP (Ac) [2]): 5.54
COc1cc2c(cc1OC)C13CCN4CC5=CCOC(CC(=O)O)C(C5CC41)C3N2 (centres unmarked) [NSC121865]	6.95	7.12	
N#Cc1ccc(/C=C/C(=O)O)cc1 [NSC134754]	6.10	6.39	
